# Results reported in patent US11679118B2, “Parasite therapy” (priority 2009, dated 2023).
# What was measured:
# [1] = tested on: D. fragilis or B. hominis; test: Treatment of patients with D. fragilis and/or B. hominis infection (combined infection), symptoms and overall outcome; type: in vivo, Dientamoeba fragilis; Blastocystis hominis; details: for stool examination after previous treatments / symptoms after previous treatments: patient, various treatments before referral; for outcome of previous treatments: patient with combined B. hominis and D. fragilis infection, 3 different treatments before referral
# Experimental: In another aspect the present invention relates to triple combinations of drugs. In some circumstances, especially with resistance even triple therapies may need to be combined to effect a cure. […] Again, the treatment requires 1 mg-5 grams/day of each of the components from 1-50 days. Other triple combinations can include iodoquinol, furazolidone and nitazoxanide. Combinations can also include diloxinide furoate, doxycycline and metronidazole in various triple combinations.
# (§1) The patient was brought into the clinic and after bowel preparation a transcolonoscopic infusion of furazolidone, nitazoxanide and secnidazole was carried out.
# The patient was referred to the Clinic for treatment. Symptoms were quite severe and they were given a combination of four medications including Septrin DS (cotrimoxazole) two times a day, diloxanide furoate 500 mg three times a day and secnidazole 400 mg three times a day together with doxycycline 50 mg two times a day.
# B. hominis [2] = details: in Egypt; Rossignol et al 2005; cited from earlier work
# B. hominis [3] = test: Treatment of patients with B. hominis infection, follow-up by stool test and symptoms; type: in vivo, Blastocystis hominis
# D. fragilis = test: Treatment of patients with D. fragilis infection, follow-up by stool test; type: in vivo, Dientamoeba fragilis; details: clinical experience and usage; also frequently ineffective as monotherapy
# Experimental: as §1
# Giardia lamblia = test: Treatment of a patient with chronic Giardiasis, follow-up by stool tests and symptoms; type: in vivo; details: previous speculative treatment in adequate doses
# Text: A patient with weight loss and diarrhea presented for an endoscopy.
# [4] = person, 400 mg bid for 14 days, at 6 months
structure (smiles),measurement,setting,value
CC(=O)Oc1ccccc1C(=O)Nc1ncc([N+](=O)[O-])s1 [nitazoxanide],stool examination after previous treatments,[1],ongoing B. hominis and D. fragilis
same,symptoms after previous treatments,[1],improved but then they recurred
same,effectiveness against Blastocystis hominis,B. hominis [2],effective
CCn1cc(C(=O)O)c(=O)c2cc(F)c(N3CCNCC3)cc21 [norfloxacin],effectiveness in treatment against Blastocystis hominis,"B. hominis [3]; clinical experience and usage, also frequently ineffective as monotherapy",effective
same,stool test for B. hominis,B. hominis [3]; [4],negative for B. hominis again
same,symptoms,B. hominis [3]; [4],still asymptomatic
same,stool test for B. hominis,"B. hominis [3]; person, 400 mg bid for 14 days, follow up at 4 weeks",negative for B. hominis
same,effectiveness in treatment against Dientamoeba fragilis,D. fragilis,effective
Cc1ncc([N+](=O)[O-])n1CCO [metronidazole],outcome of previous therapies,"B. hominis [3]; resistant Blastocystis hominis, multiple therapies before referral",failed
same,"Giardia lamblia infection, histologically at endoscopy",Giardia lamblia,continued to have Giardia lamblia infection
same,diarrhea,Giardia lamblia,did not settle
same,outcome of previous treatments,[1],failed
same,stool examination after previous treatments,[1],ongoing B. hominis and D. fragilis
same,symptoms after previous treatments,[1],improved but then they recurred
CCS(=O)(=O)CCn1c([N+](=O)[O-])cnc1C [tinidazole],outcome of previous treatments,[1],failed
O=C1OCCN1/N=C/c1ccc([N+](=O)[O-])o1 [furazolidone],stool examination after previous treatments,[1],ongoing B. hominis and D. fragilis
same,symptoms after previous treatments,[1],improved but then they recurred
